Assays:
SKOV-3 cells = assay: Sulforhodamine B (SRB) cell proliferation assay, 5-day treatment, SKOV-3; type: cell-based, human; details: 5 days
Method: (§1) Human ovarian carcinoma cell lines OVCAR-3, SKOV-3, 1A9 and 1A9PTX22 were used. OVCAR-3 and SKOV-3 cells were obtained from the American Type Culture Collection (ATCC) and maintained on RPMI medium and McCoy5A medium respectively according to ATCC instructions. 1A9 is a clone of the human ovarian carcinoma cell line, A2780 (Sackett et al., 1997). 1A9PTX22 is a paclitaxel resistant subclone of 1A9 cells, isolated as an individual clone in a single step selection by exposing 1A9 cells to 5 ng/ml paclitaxel in the presence of 5 μg/ml verapamil, a Pgp antagonist (Giannakakou et al., 1997). Cells were maintained in 15 ng/ml paclitaxel and 5 μg/ml verapamil continuously.
(§2) Sulforhodamine B (SRB) colorimetric assay was used to study the effect of albendazole, paclitaxel or their combination on tumour cell cytotoxicity in vitro.
(§3) Cells were harvested from exponential phase cultures by trypsinization, counted and plated in 96-well plates. Optimal seeding densities for each cell line were determined to ensure exponential growth during a 5-day assay. Seeding densities were 5000, 1000, 400 and 3500 cells per well for OVCAR-3, SKOV-3, 1A9 and 1A9PTX22 cells, respectively. […] The plates were left to dry at room temperature and bound protein stain was solubilized with 100 μl 10 mM un-buffered Tris base [tris(hydroxymethyl)aminomethane)] before reading the optical density (OD) at 570 nm. […]

1A9 cells = assay: Sulforhodamine B (SRB) cell proliferation assay, 5-day treatment, 1A9; type: cell-based; details: Homo sapiens
Method: as §1, §2, §3

1A9PTX22 cells [1] = assay: Sulforhodamine B (SRB) cell proliferation assay, 5-day treatment, 1A9PTX22 (paclitaxel resistant); type: cell-based, human; details: for effect on cell proliferation: 1A9PTX22
Method: as §1, §2
Cells were harvested from exponential phase cultures by trypsinization, counted and plated in 96-well plates. Optimal seeding densities for each cell line were determined to ensure exponential growth during a 5-day assay. Seeding densities were 5000, 1000, 400 and 3500 cells per well for OVCAR-3, SKOV-3, 1A9 and 1A9PTX22 cells, respectively. Cells plated in 96-well tissue culture plates were treated with 100 μl cell culture medium containing various concentrations of albendazole, paclitaxel or a combination of the two. […] Treatment media were replaced on alternate days. At the end of the treatment period (5 days), wells were assayed for cellular protein content. The SRB assay was performed according to the method described by Skehan et al. (1990) and Papazisis at al. (1997), with minor modifications. The culture medium was aspirated prior to fixation of the cells by the addition of 100 μl 10% cold trichloroacetic acid. After an hour incubation at 4° C., cells were washed five times with water. The cells were then stained with 200 μl 0.4% SRB dissolved in 1% acetic acid for at least 15 min and subsequently washed four times with 1% acetic acid to remove unbound stain. The plates were left to dry at room temperature and bound protein stain was solubilized with 100 μl 10 mM un-buffered Tris base [tris(hydroxymethyl)aminomethane)] before reading the optical density (OD) at 570 nm.
For each of the four cell lines used in this study, sensitivity of each line was initially tested by incubating cells with various concentrations of albendazole or paclitaxel for 5 days. The SRB assay was performed at the end of the treatment period to determine cell response to drug treatment.

1A9PTX22 cells [2] = assay: SRB assay, 72 hours, cross resistance of 1A9PTX22 compared to parent line 1A9; type: cell-based, human; details: for concentration at which partial resistance of 1A9PTX22 is apparent: 1A9PTX22 vs 1A9, p<0.001; for degree of sensitivity of 1A9PTX22 cells compared to parent cell line 1A9: various concentrations
Method: Cells were harvested from exponential phase cultures by trypsinization, counted and plated in 96-well plates. Optimal seeding densities for each cell line were determined to ensure exponential growth during a 5-day assay. Seeding densities were 5000, 1000, 400 and 3500 cells per well for OVCAR-3, SKOV-3, 1A9 and 1A9PTX22 cells, respectively. Cells plated in 96-well tissue culture plates were treated with 100 μl cell culture medium containing various concentrations of albendazole, paclitaxel or a combination of the two. Both albendazole and paclitaxel were originally made up in absolute ethanol and subsequently diluted with cell culture medium to give the desired drug concentrations with a final ethanol concentration of 1%. Treatment media were replaced on alternate days. At the end of the treatment period (5 days), wells were assayed for cellular protein content. The SRB assay was performed according to the method described by Skehan et al. (1990) and Papazisis at al. (1997), with minor modifications. The culture medium was aspirated prior to fixation of the cells by the addition of 100 μl 10% cold trichloroacetic acid. After an hour incubation at 4° C., cells were washed five times with water. The cells were then stained with 200 μl 0.4% SRB dissolved in 1% acetic acid for at least 15 min and subsequently washed four times with 1% acetic acid to remove unbound stain. The plates were left to dry at room temperature and bound protein stain was solubilized with 100 μl 10 mM un-buffered Tris base [tris(hydroxymethyl)aminomethane)] before reading the optical density (OD) at 570 nm.
1A9 and 1A9PTX22 cells plated in 96-well tissue culture plates were treated with 100 μl cell culture medium containing various concentrations of vincristine and colchicine for 72 hours and SRB assays conducted as described above. As for paclitaxel (see Example 1), both vincristine and colchicine were originally made up in absolute ethanol and subsequently diluted with cell culture medium to give the desired drug concentrations with a final ethanol concentration of 1%. The results are illustrated in FIGS. 5A (vincristine) and 5B (colchicine). […] The partial resistance of 1A9PTX22 is apparent for vincristine at concentrations of 5 nM and above and for colchicine at 100 nM and above (p<0.001).

Structure (SMILES): CCCSc1ccc2nc(NC(=O)OC)[nH]c2c1 [albendazole]
- reduction in cell proliferation (SKOV-3 cells; 0.25 μM albendazole alone): 48.4%
- inhibition at 0.1 µM (1A9 cells; 1A9, 120 h, read-out: inhibition of proliferation): 11.8%
- sensitivity of 1A9PTX22 compared to the parent line (1A9) (1A9PTX22 cells [1]; 1A9PTX22 vs 1A9, various concentrations, 5 days): even more sensitive
- inhibition at 1 µM (1A9PTX22 cells [1]; Homo sapiens, 1A9/ptx-22, 120 h, read-out: inhibitory effect on proliferation): 53%

Structure (SMILES): COc1cc2c(c(OC)c1OC)-c1ccc(OC)c(=O)cc1[C@@H](NC(C)=O)CC2 [colchicine]
- concentration at which partial resistance of 1A9PTX22 is apparent (1A9PTX22 cells [2]): ≥ 100 nM
- degree of sensitivity of 1A9PTX22 cells compared to parent cell line 1A9 (1A9PTX22 cells [2]): significantly reduced

Structure (SMILES): CC(=O)O[C@H]1C(=O)[C@@]2(C)[C@H]([C@H](OC(=O)c3ccccc3)[C@]3(O)C[C@H](OC(=O)[C@H](O)[C@@H](NC(=O)c4ccccc4)c4ccccc4)C(C)=C1C3(C)C)[C@]1(OC(C)=O)CO[C@@H]1C[C@@H]2O [paclitaxel]
- inhibition at 10 pM (SKOV-3 cells; Homo sapiens, SK-OV-3, 120 h, 0.01 nM paclitaxel alone): 14.5%
- inhibition at 0.0001 µM (1A9 cells; 120 h, 1A9, 0.1 nM paclitaxel alone, 5 days): 21.8%
- effect on cell proliferation (1A9PTX22 cells [1]; 1.0 nM paclitaxel alone, 5 days): not affected
- effect on cell proliferation (1A9PTX22 cells [1]; 5.0 nM paclitaxel alone, 5 days): not affected
- increase in paclitaxel concentration required in paclitaxel-resistant cell lines for a response similar to paclitaxel-sensitive cells (1A9PTX22 cells [1]; paclitaxel alone, resistant vs sensitive cells): approximately 50 fold

Structure (SMILES): CC[C@]1(O)C[C@H]2CN(CCc3c([nH]c4ccccc34)[C@@](C(=O)OC)(c3cc4c(cc3OC)N(C=O)[C@H]3[C@@](O)(C(=O)OC)[C@H](OC(C)=O)[C@]5(CC)C=CCN6CC[C@]43[C@@H]65)C2)C1 [vincristine]
- concentration at which partial resistance of 1A9PTX22 is apparent (1A9PTX22 cells [2]): ≥ 5 nM
- degree of sensitivity of 1A9PTX22 cells compared to parent cell line 1A9 (1A9PTX22 cells [2]): significantly reduced

— US8835478B2, “Treatment for cancer” (Pitney Pharmaceuticals PTY Limited, priority 2005, dated 2014)
